Laboratory results from patent publication US20080275135A1, “Resorcinol Derivatives and Their Use for Lowering Blood Pressure” (priority 2004, published 2008).
“Also recorded” adds a separate entry of the source.

How the values were obtained:
rat aortic rings [1] = settings: literature, Offertaler et al. 2003; cited from earlier work
cannabinoid receptor CB2 = molecular target: T1, cannabinoid receptor CB2 (Homo sapiens, UniProt P34972); test: Cannabinoid receptor binding, [3H]HU-243 displacement, transfected cells; settings: data not shown
T1 construct: expressed in transfected cells
T1 sequence (P34972 whole entry): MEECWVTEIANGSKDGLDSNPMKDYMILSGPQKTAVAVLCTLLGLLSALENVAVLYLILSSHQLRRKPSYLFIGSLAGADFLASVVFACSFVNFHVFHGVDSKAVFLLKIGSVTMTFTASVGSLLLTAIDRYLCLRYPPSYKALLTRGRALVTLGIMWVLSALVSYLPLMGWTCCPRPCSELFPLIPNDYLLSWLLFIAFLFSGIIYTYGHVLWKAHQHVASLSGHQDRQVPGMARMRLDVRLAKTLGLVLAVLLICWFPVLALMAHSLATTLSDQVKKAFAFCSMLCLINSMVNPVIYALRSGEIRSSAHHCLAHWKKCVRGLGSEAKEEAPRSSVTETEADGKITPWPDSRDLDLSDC
Method: (§1) The protocol for cannabinoid receptor binding has been previously described [Devane W. A. et al. (1992) Science 258, 1946-1949]. […] Bound and free radioligand were separated by centrifugation. The data were normalized to 100% of specific binding, which was determined with 50 nM unlabeled HU-243. The Ki value was determined using the program GraphPad Prism (Version 3.02) which follows the Cheng-Prusoff equation. A sigmoid dose-response (variable slope) built-in equation in this Prism program was used to fit the curves.

rat aortic rings [2] = test: Relaxation of phenylephrine pre-contracted aortic rings; set-up: species or system Sabra rats; settings: for maximum vasorelaxation: FIG. 2A
Method: Abdominal aortic rings of male Sabra rats of 300 g average body weight were obtained from the animal facility of the Hebrew University of Jerusalem, campus Ein Kerem, Jerusalem, Israel. The animals were anaesthetized by an intra-peritoneal injection of pentobarbital (50 mg kg^−1). After thoracotomy, the aorta was excised, transferred to a dish filled with Krebs-Henseleit buffer (composition in mM: NaCl 150.0, KCl 5.4, MgSO4 1.17, NaH2 PO4 1.18, NaHCO3 6.0, CaCl2 1.0, HEPES 20.0, glucose 5.5, pH 7.4), cleared of periadventitial tissue, and cut into ring segments (3 mm in length). Only segments of the abdominal aorta were used. Two stainless-steel hooks were carefully passed through the lumen of each ring. One hook was connected to an isometric force transducer (BIOPAC Instruments, Goleta, Calif.) to measure tension in the vessels. The rings were placed in a 10-ml organ bath, gassed with 5% CO2 in O2 and maintained at 37° C. The rings were stretched until an optimal basal tension of 1.0 g. After this tension was achieved they were allowed to equilibrate for 60 minutes with the bath fluid being changed every 15-20 min. Baseline tension usually stabilized within 60 min of mounting, during which time there were four replacements of bathing solution. The segment was then pre-contracted by 5 μM phenylephrine. […] The levels of relaxation were then measured. The endothelial function was assessed by testing the relaxant effect of acetylcholine (10 nM-[…]) on aortic rings pre-contracted with phenylephrine. Failure of acetylcholine to elicit relaxation of aortic rings previously subjected to rubbing of the intimal surface was taken as evidence of endothelium removal. Concentration-response curves were generated by cumulative addition of the agonist. Whenever antagonists (PTX 0.5 μg/ml, SR-141716 A, SR-144528 or 10 μM of 0-1918) were used, they were added 20 min before the agonist (FIG. 2B). All experiments were conducted with aluminum foil-covered organ bath to prevent light-induced degradation of the drugs.

[3] = Blood pressure in anesthetized rats after i.v. bolus; format: in vivo, Sabra rats
Method: The protocol for testing blood pressure was applied essentially as previously described [Shochina, M. and Horowitz, M. (1989) J. Therm. Biol. 14, 109 113]. Adult male Sabra rats weighing between 225 to 250 g had their femoral vein cannulated for intravenous (i.v.) drug administration. Anesthesia was induced by the intraperitoneal (i.p.) injection of pentobarbital sodium 6%, 60 mg/kg. The femoral artery was cannulated and a catheter (PE 10 cannulae) was connected to a pressure transducer for continuous monitoring of blood pressure with a physiograph (AcKnowledge program). After a 30 minute stabilization period, the animals were injected with either vehicle (sahine:ethanol:Emulphor® 18:1:1) or the drug (Compound 1, as described above, varying from 1 to 10 mg/kg) injected in bolus i.v. in volumes ≧500 μl. The changes in blood pressure were monitored for 60 minutes. […] The hypotensive activity of Compound 1 leads the way to a new class of atypical cannabinoids with no psychotropic activity and with a mechanism of action differing from the anti-hypertensive drugs known to date.

cannabinoid receptor CB1 [4] = molecular target: T2, cannabinoid receptor CB1 (Rattus norvegicus, UniProt P20272); test: Cannabinoid receptor binding, [3H]HU-243 displacement, synaptosomal membranes; settings: data not shown
T2 construct: from tissue
T2 sequence (P20272 whole entry): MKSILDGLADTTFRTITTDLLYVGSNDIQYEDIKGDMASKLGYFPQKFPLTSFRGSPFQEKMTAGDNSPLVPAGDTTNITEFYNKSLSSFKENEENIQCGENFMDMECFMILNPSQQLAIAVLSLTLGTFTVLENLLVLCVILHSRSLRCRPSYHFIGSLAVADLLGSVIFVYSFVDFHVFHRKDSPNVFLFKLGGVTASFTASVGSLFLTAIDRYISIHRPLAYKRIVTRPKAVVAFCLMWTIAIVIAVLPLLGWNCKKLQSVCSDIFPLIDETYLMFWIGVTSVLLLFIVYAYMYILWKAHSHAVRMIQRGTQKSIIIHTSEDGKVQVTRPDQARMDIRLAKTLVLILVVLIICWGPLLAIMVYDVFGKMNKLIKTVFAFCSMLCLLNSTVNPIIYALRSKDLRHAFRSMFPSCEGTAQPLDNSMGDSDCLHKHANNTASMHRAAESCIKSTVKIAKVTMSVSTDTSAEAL
Method: as §1

cannabinoid receptor CB1 [5] = molecular target: T2, cannabinoid receptor CB1; settings: high affinity receptor probe; read-out: dissociation constant; cited from earlier work

Compound: C=C(C)[C@@H]1CCC(C)=C[C@H]1c1c(O)cc(O)cc1CCCCC (relative stereo) [Abn-CBD, (−)-4-(3-3,4-trans-p-menthadien-1,8)-yl-olivetol]
- antagonism by O-1918 (rat aortic rings [1]): antagonized by 0-1918

Compound: CCCCCCC(C)(C)c1cc(O)c(C/C=C(\C)CCC=C(C)C)c(O)c1 [Compound 1, 2-geranyl-5-(1,1-dimethylheptyl)-resorcinol]
- binding to CB2 (cannabinoid receptor CB2): no binding
- antagonism of relaxation by O-1918 (rat aortic rings [2]; 10 μM O-1918 added 20 min before agonist, FIG. 2B, listed as CBG-DMH): did not result in antagonism; also recorded: does not antagonize
- relaxation of pre-contracted segments (rat aortic rings [2]; cumulative doses, 5 μM phenylephrine pre-contraction): led to relaxation of the contracted segments
- maximum vasorelaxation (rat aortic rings [2]; denuded artery): 25%
- maximum vasorelaxation (rat aortic rings [2]; intact artery): 55%
- aortic vasorelaxant effect in presence of pertussis toxin (rat aortic rings [2]; pertussis toxin 0.5 μg/ml, data not shown): inhibited in the presence of pertussis toxin
- vasodilator function (rat aortic rings [2]; preliminary data): functions as a vasodilator
- effect on blood pressure (BP) ([3]; 2.5 mg/kg i.v., FIG. 1): Reduction in blood pressure is already observed
- change in heart rate ([3]; 5 mg/kg i.v.): without causing change in the heart rate
- effect on blood pressure (BP) ([3]; 5 mg/kg i.v.): caused hypotension
- effect on blood pressure (BP) ([3]; 5 mg/kg i.v., listed as CBG-DMH): the effect becomes much more pronounced
- mean systolic blood pressure over 60 minutes ([3]; 1 to 10 mg/kg bolus i.v., FIG. 1): clear reduction of the systolic blood pressure
- antagonism of hypotensive effect by CBD ([3]; CBD in similar doses): antagonized by CBD
- binding to CB1 (cannabinoid receptor CB1 [4]): no binding

Compound: CCCCCCC(C)(C)c1cc(O)c2c(c1)OC(C)(C)[C@@H]1CC[C@@H](CO)C[C@@H]21 [[^3H]HU-243]
- Kd (cannabinoid receptor CB1 [5]): 0.045 nM
